Three compounds from ChEMBL document CHEMBL1158401, “Development of CoMFA and CoMSIA models of affinity and selectivity for indole ligands of cannabinoid CB1 and CB2 receptors” (Eur J Med Chem, 2009) can be followed below.

pKi: −log10 of the molar value.

Assay [1] in a line: Selectivity ratio of pKi for CB1 receptor in rat brain to pKi for human cloned CB2 receptor. The format is tissue-based.
Assay [2] in a line: Selectivity ratio of pKi for human cloned CB2 receptor to pKi for CB1 receptor in rat brain. The format is tissue-based.
Assay [3] addresses Cannabinoid receptor 1 (Rattus norvegicus, UniProt P20272). The assay is described as follows: Displacement of [3H]CP-55940 from CB1 receptor in rat brain by filtration assay. The format is tissue-based.
Assay [4] deals with Cannabinoid receptor 2 (Homo sapiens, UniProt P34972). The assay is described as follows: Displacement of [3H]CP-55940 from human cloned CB2 receptor by filtration assay.
Chain of Cannabinoid receptor 2 (P34972 whole entry): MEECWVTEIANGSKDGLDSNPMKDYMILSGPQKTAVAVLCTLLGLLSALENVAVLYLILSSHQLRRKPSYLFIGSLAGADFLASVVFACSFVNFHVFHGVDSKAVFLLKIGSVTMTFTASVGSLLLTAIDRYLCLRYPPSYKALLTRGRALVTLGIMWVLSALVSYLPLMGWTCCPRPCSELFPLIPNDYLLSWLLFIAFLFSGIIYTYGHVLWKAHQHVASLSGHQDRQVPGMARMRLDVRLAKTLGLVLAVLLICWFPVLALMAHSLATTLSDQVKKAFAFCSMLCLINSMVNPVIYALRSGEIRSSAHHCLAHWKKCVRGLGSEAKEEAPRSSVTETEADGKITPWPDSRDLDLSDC

Chain of Cannabinoid receptor 1 (P20272 whole entry): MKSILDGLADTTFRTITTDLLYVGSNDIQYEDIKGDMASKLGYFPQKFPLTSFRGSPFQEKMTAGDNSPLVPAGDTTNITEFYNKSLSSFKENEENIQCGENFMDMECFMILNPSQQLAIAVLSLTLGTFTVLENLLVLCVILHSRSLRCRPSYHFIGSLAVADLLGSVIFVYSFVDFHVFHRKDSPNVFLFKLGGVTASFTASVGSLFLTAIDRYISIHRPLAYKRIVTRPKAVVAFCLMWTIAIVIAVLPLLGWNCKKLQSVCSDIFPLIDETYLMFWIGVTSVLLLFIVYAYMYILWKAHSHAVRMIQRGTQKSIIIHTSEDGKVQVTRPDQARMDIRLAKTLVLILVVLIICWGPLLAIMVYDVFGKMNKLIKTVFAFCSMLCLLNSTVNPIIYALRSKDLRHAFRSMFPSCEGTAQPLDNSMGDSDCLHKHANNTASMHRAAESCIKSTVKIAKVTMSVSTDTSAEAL

For `CCCn1c(C)c(C(=O)c2cccc3ccc(C)cc23)c2ccccc21`, the Ratio pKi in assay [1] is 0.829; in assay [2] it was 1.21. Besides, the results for the negative logarithm of the Ki (pKi) in assay [3] and in assay [4] were 6.46 and 7.80, respectively.

For `CCCn1c(C)c(C(=O)c2ccc(OC)c3ccccc23)c2ccccc21`, the Ratio pKi came out at 0.901 in assay [1] and 1.11 in assay [2]. Also, the pKi in assay [3] is 6.32; in assay [4], 7.01.

Take `CCCCCn1c(C)c(C(=O)c2ccc(OC)c3ccccc23)c2ccccc21`: the values for the Ratio pKi in assay [1] and in assay [2] were 0.957 and 1.04, respectively. The pKi in assay [3] was 8.35; in assay [4], 8.72.
